Laboratory results: patent US20240425492A1, “POLYMORPHS AS ERBB INHIBITORS” (Black Diamond Therapeutics, Inc., priority 2021, published 2024)
Values after ≈ are worked out from the molar mass of the structure shown.

Assays:
[1] = Hygroscopicity by DVS at 25° C.; format: physicochemical; conditions: for Desorp. (%) / Sorp. (%): DVS 25° C.
Experimental: Dynamic Vapor Sorption (DVS): DVS analysis was performed using Intrinsic. Analysis was performed using parameters as set forth below.
The hygroscopicity for Form C and Form F was examined. See, e.g., Table E.

[2] = Bulk stability under accelerated storage conditions (XRPD and HPLC); conditions: for Bulk (XRPD) / Purity, Bulk (HPLC): Solid state
Text: Solids obtained after bulk stability study were characterized by XRPD and HPLC.

[3] = Solubility study in aqueous media at 37° C. (HPLC of supernatants, pH); conditions: for solubility / solubility at 2 h / solubility at 24 h: 37 °C, thermodynamic from solid
Experimental: 2.01 mg of the free base Form C (equal to 2 mg free base after correction for water content) was weighed into 2 mL vial. 2.09 mg of the free base Form F (equal to 2 mg free base after correction for water content) was weighed into a 2 mL vial. I mL of aqueous media was added, respectively. These suspensions were stirred at 37° C. at a rate of 400 rpm. These suspensions were taken out after 2 h and 24 h, and then centrifuged at 14,000 rpm for 5 minutes. The supernatants were analyzed by HPLC. The pH of the supernatants were tested.

[4] = 25° C./92.5% RH in an open vial, 2 weeks
[5] = 25° C./92.5% RH in an open vial, 4 weeks
[6] = 40° C./75% RH in an open vial, 2 weeks
[7] = 40° C./75% RH in an open vial, 4 week
[8] = 60° C., tight container, 2 weeks
[9] = 60° C., tight container, 4 weeks
[10] = SGF, pH 2, simulated gastric fluid
[11] = pH 1.0 HCl solution (0.1N), pH 1, simulated gastric fluid
[12] = pH 4.5 acetate buffer (50 mM), pH 4.5, aqueous buffer
[13] = pH 6.8 phosphate buffer (50 mM), pH 6.8, aqueous buffer

CN1C[C@H]2C[C@@]2(C#Cc2cc3ncnc(Nc4cccc(Cl)c4F)c3cc2NC(=O)/C=C/CN2CCOCC2)C1 [Form C]
DVS water uptake at 90% RH ([1]; 25° C., dm/dt = 0.002%): 1.6% water uptake at 90% RH
DVS water uptake at 95% RH ([1]; 25° C., dm/dt = 0.002%): 2.3% water uptake at 95% RH
Desorp. (%) ([1]; Relative Humidity 0%, first Desorp.): 0.2%
Sorp. (%) ([1]; Relative Humidity 0%, first Sorp.): 0.2%
Desorp. (%) ([1]; Relative Humidity 0%, second Desorp.): 0.0%
Sorp. (%) ([1]; Relative Humidity 0%, second Sorp.): 0.0%
Desorp. (%) ([1]; Relative Humidity 10%, first Desorp.): 0.3%
Sorp. (%) ([1]; Relative Humidity 10%, first Sorp.): 0.2%
Desorp. (%) ([1]; Relative Humidity 10%, second Desorp.): 0.1%
Sorp. (%) ([1]; Relative Humidity 10%, second Sorp.): 0.1%
Desorp. (%) ([1]; Relative Humidity 20%, first Desorp.): 0.4%
Sorp. (%) ([1]; Relative Humidity 20%, first Sorp.): 0.3%
Desorp. (%) ([1]; Relative Humidity 20%, second Desorp.): 0.2%
Sorp. (%) ([1]; Relative Humidity 20%, second Sorp.): 0.2%
Desorp. (%) ([1]; Relative Humidity 30%, first Desorp.): 0.5%
Sorp. (%) ([1]; Relative Humidity 30%, first Sorp.): 0.4%
Desorp. (%) ([1]; Relative Humidity 30%, second Desorp.): 0.3%
Sorp. (%) ([1]; Relative Humidity 30%, second Sorp.): 0.3%
Desorp. (%) ([1]; Relative Humidity 40%, first Desorp.): 0.5%
Sorp. (%) ([1]; Relative Humidity 40%, first Sorp.): 0.4%
Desorp. (%) ([1]; Relative Humidity 40%, second Desorp.): 0.4%
Sorp. (%) ([1]; Relative Humidity 40%, second Sorp.): 0.3%
Sorp. (%) ([1]; Relative Humidity 50%, first Sorp.): 0.5%
Desorp. (%) ([1]; Relative Humidity 50%, second Desorp.): 0.6%
Sorp. (%) ([1]; Relative Humidity 60%, first Sorp.): 0.6%
Desorp. (%) ([1]; Relative Humidity 60%, second Desorp.): 1.1%
Sorp. (%) ([1]; Relative Humidity 70%, first Sorp.): 0.8%
Desorp. (%) ([1]; Relative Humidity 70%, second Desorp.): 1.4%
Sorp. (%) ([1]; Relative Humidity 80%, first Sorp.): 1.2%
Desorp. (%) ([1]; Relative Humidity 80%, second Desorp.): 1.7%
Sorp. (%) ([1]; Relative Humidity 90%, first Sorp.): 1.8%
Desorp. (%) ([1]; Relative Humidity 90%, second Desorp.): 2.2%
Sorp. (%) ([1]; Relative Humidity 95%, first Sorp.): 2.5%
Desorp. (%) ([1]; Relative Humidity 95%, second Desorp.): 2.5%
XRPD after DVS test ([1]; DVS at 25° C.): No form change
HPLC area Purity ([2]; 1 Month, 5° C.): 98.2%
Water content ([2]; 1 Month, 5° C.): 0.5%
impurity RRT0.967 ([2]; 1 Month, 5° C.): 0.07%
impurity RRT0.971 ([2]; 1 Month, 5° C.): 0.08%
impurity RRT1.20 ([2]; 1 Month, 5° C.): 0.06%
impurity RRT1.24 ([2]; 1 Month, 5° C.): 1.4%
impurity RRT1.26 ([2]; 1 Month, 5° C.): 0.13%
impurity RRT1.28 ([2]; 1 Month, 5° C.): 0.11%
HPLC area Purity ([2]; 1 Month, 25° C./60% RH): 98.2
Water content ([2]; 1 Month, 25° C./60% RH): 0.4%
impurity RRT0.967 ([2]; 1 Month, 25° C./60% RH): 0.07%
impurity RRT0.971 ([2]; 1 Month, 25° C./60% RH): 0.08%
impurity RRT1.20 ([2]; 1 Month, 25° C./60% RH): 0.06%
impurity RRT1.24 ([2]; 1 Month, 25° C./60% RH): 1.4%
impurity RRT1.26 ([2]; 1 Month, 25° C./60% RH): 0.13%
impurity RRT1.28 ([2]; 1 Month, 25° C./60% RH): 0.11%
HPLC area Purity ([2]; 1 Month, 40° C./75% RH): 98.2%
Water content ([2]; 1 Month, 40° C./75% RH): 0.7%
impurity RRT0.967 ([2]; 1 Month, 40° C./75% RH): 0.08%
impurity RRT0.971 ([2]; 1 Month, 40° C./75% RH): 0.08%
impurity RRT1.20 ([2]; 1 Month, 40° C./75% RH): 0,07%
impurity RRT1.24 ([2]; 1 Month, 40° C./75% RH): 1.4%
impurity RRT1.26 ([2]; 1 Month, 40° C./75% RH): 0.13%
impurity RRT1.28 ([2]; 1 Month, 40° C./75% RH): 0.11%
HPLC area Purity ([2]; Initial): 98.1
Water content ([2]; Initial): 0.4%
impurity RRT0.967 ([2]; Initial): 0.09%
impurity RRT0.971 ([2]; Initial): 0.06%
impurity RRT1.20 ([2]; Initial): 0.06%
impurity RRT1.24 ([2]; Initial): 1.4%
impurity RRT1.26 ([2]; Initial): 0.13%
impurity RRT1.28 ([2]; Initial): 0.12%
impurity RrRT1.12 ([2]; Initial): 0.05%
polymorph ([2]; Initial): Form C
Bulk (XRPD) [2, 4]: No form change
Purity, Bulk (HPLC) [2, 4]: 96.6%
Bulk (XRPD) [2, 5]: No form change
Purity, Bulk (HPLC) [2, 5]: 96.4%
Bulk (XRPD) [2, 6]: No form change
Purity, Bulk (HPLC) [2, 6]: 95.5%
Bulk (XRPD) [2, 7]: No form change
Purity, Bulk (HPLC) [2, 7]: 94.6%
Bulk (XRPD) [2, 8]: No form change
Purity, Bulk (HPLC) [2, 8]: 95.5%
Bulk (XRPD) [2, 9]: No form change
Purity, Bulk (HPLC) [2, 9]: 93.3%
form change after bulk stability study (XRPD) ([2]; three accelerated conditions, two weeks and four weeks): do not change forms
stability in FaSSIF-v1 ([3]; 37° C., FaSSIF-v1): degraded
stability in FeSSIF-v1 ([3]; 37° C., FeSSIF-v1): degraded
2 h Solubility ([3]; FaSSIF-v1, pH 6.5, 37° C.): Degradation
24 h Solubility ([3]; FaSSIF-v1, pH 6.5, 37° C.): Degradation
2 h Solubility ([3]; FeSSIF-v1, pH 5.0, 37° C.): Degradation
24 h Solubility ([3]; FeSSIF-v1, pH 5.0, 37° C.): Degradation
solubility [3, 10]: > 2000 µg/mL
solubility at 2 h [3, 10]: > 2000 µg/mL
solubility at 24 h [3, 10]: > 2000 µg/mL
24 h (pH) of supernatant ([3]; SGF, pH 2.0, 37° C.): pH 3.7
24 h (pH) of supernatant ([3]; Water, 37° C.): pH 7.4
24 h (pH) of supernatant ([3]; pH 1.0 (0.1N HCl), 37° C.): pH 1.0
solubility at 2 h [3, 11]: > 2000 µg/mL
solubility at 24 h [3, 11]: > 2000 µg/mL
solubility ([3]; pH 1.0 HCl solution, pH 1, simulated gastric fluid): > 2000 µg/mL
24 h (pH) of supernatant ([3]; pH 4.5 (50 mM) acetate buffer, 37° C.): pH 4.5
solubility [3, 12]: > 2000 µg/mL
solubility at 2 h [3, 12]: 2000 µg/mL (≈ 3560 µM)
solubility at 24 h [3, 12]: > 2000 µg/mL
24 h (pH) of supernatant ([3]; pH 6.8 (50 mM) phosphate buffer, 37° C.): pH 6.7
solubility [3, 13]: ~20 µg/mL (≈ 35.6 µM)
solubility at 2 h [3, 13]: 20.4 µg/mL (≈ 36.4 µM)
solubility at 24 h [3, 13]: 16.5 µg/mL (≈ 29.4 µM)
solubility ([3]; pure water, water): < 10 µg/mL
solubility at 2 h ([3]; water): 1.6 µg/mL (≈ 2.85 µM)
solubility at 24 h ([3]; water): 2 µg/mL (≈ 3.56 µM)
